In PubChem BioAssay (NCI):
Several values for one entry are separate records, joined by “and”; a condition that tells them apart may be missing. Equal values may be shown once.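 Results reflect a 48-hour exposure of cells in 96-well plates to compound at five concentrations. Abbreviation: GI50, concentration required for 50% inhibition of growth. Definition used: TGI = concentration required for complete inhibition of growth.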

How the values were obtained:
Assay in all cases: growth of human tumour cells (NCI), 48 h
786-0 renal = tested on: 786-0 renal
CAKI-1 renal = tested on: CAKI-1 renal
DU-145 prostate = tested on: DU-145 prostate
HCC-2998 colon = tested on: HCC-2998 colon
HOP-62 NSCLC = tested on: HOP-62 NSCLC
HT29 colon = tested on: HT29 colon
LOX IMVI melanoma = tested on: LOX IMVI melanoma
MDA-MB-231 breast = tested on: MDA-MB-231 breast
NCI-H23 lung = tested on: NCI-H23 lung
NCI-H522 lung = tested on: NCI-H522 lung
OVCAR-3 ovarian = tested on: OVCAR-3 ovarian
OVCAR-4 ovarian = tested on: OVCAR-4 ovarian
OVCAR-5 ovarian = tested on: OVCAR-5 ovarian
SW-620 colon = tested on: SW-620 colon
UACC-257 melanoma = tested on: UACC-257 melanoma
A498 renal = tested on: A498 renal
CCRF-CEM leukemia = tested on: CCRF-CEM leukemia
HOP-92 NSCLC = tested on: HOP-92 NSCLC
MALME-3M melanoma = tested on: MALME-3M melanoma

Compound	TGI (786-0 renal)	TGI (CAKI-1 renal) [µM]	TGI (DU-145 prostate) [µM]	TGI (HCC-2998 colon)	TGI (HOP-62 NSCLC) [µM]	TGI (HT29 colon) [µM]	TGI (LOX IMVI melanoma)	TGI (MDA-MB-231 breast) [µM]	TGI (NCI-H23 lung)	TGI (NCI-H522 lung) [µM]	TGI (OVCAR-3 ovarian)	TGI (OVCAR-4 ovarian) [µM]	TGI (OVCAR-5 ovarian)	TGI (SW-620 colon)	TGI (UACC-257 melanoma)	TGI (A498 renal)	TGI (CCRF-CEM leukemia)	TGI (HOP-92 NSCLC)	TGI (MALME-3M melanoma)	GI50 (HCC-2998 colon)
CC(C)(C)[Si](C)(C)OCC1OC(n2ccc(=O)[nH]c2=O)C(O[Si](C)(C)C(C)(C)C)[C@@]12O[C@H]2C(N)=O (stereo not given in full)	29.9 µM	28.2	17.6	> 100 µM	26.8	12.4	18.1 µM	21.7	28.7 µM	7.35	25.9 µM	89.5	40.6 µM	42.5 µM	> 100 µM	–	–	–	–	–
O=C1CCCCC1=C(I)I	31.9 µM	–	34.1	29.5 µM	57.5	–	–	–	–	–	30.3 µM	24.5	31.6 µM	31.2 µM	–	35.5 µM	73.3 µM	29 µM	27.5 µM	–
NC1=NNC2(C(=O)N1)c1ccccc1-c1ccccc12	> 10 µM	> 10	–	> 10 µM	> 10	–	> 10 µM	–	> 10 µM	–	> 10 µM	–	> 10 µM	> 10 µM	–	> 10 µM	> 10 µM	> 10 µM	> 10 µM	–
CN(C(=O)c1ccc(Cl)cc1)C(=S)N1CCN(c2ccccn2)CC1	> 100 µM	> 100	–	–	> 100	> 100	> 100 µM	–	> 100 µM	> 100	> 100 µM	> 100	> 100 µM	> 100 µM	> 100 µM	–	> 100 µM	> 100 µM	> 100 µM	–
O/N=C/c1cc2c(cc1Br)OCO2	> 100 µM	> 100	–	> 100 µM	> 100	> 100	> 100 µM	–	> 100 µM	> 100	> 100 µM	> 100	> 100 µM	> 100 µM	> 100 µM	> 100 µM	> 100 µM	–	> 100 µM	–
CCOP1(=O)C=C(Sc2ccc([N+](=O)[O-])cc2[N+](=O)[O-])C(C)(C)O1 (stereo not given)	23.6 µM	24.8	26.4	39.7 µM	56.2	> 75.9	> 34.9 µM	–	46.3 µM	9.36	25.9 µM	28.9	43.4 µM	> 52.2 µM	25 µM	44.5 µM	16.4 µM	25.3 µM	31.4 µM	–
C=CN1C(=O)OC[C@@H]1c1ccccc1	> 100 µM	> 100	–	> 100 µM	> 100	> 100	> 100 µM	–	> 100 µM	> 100	> 100 µM	> 100	> 100 µM	37.9 µM	> 100 µM	> 100 µM	> 100 µM	> 100 µM	> 100 µM	–
COc1cc(Cl)cc(N(O)C(C)=O)c1OCc1ccccc1	> 100 µM	> 100	–	> 100 µM	> 100	> 100	> 100 µM	–	> 100 µM	> 100	> 100 µM	> 100	> 100 µM	> 100 µM	> 100 µM	> 100 µM	> 100 µM	> 100 µM	> 100 µM	–
CCOC(=O)NC(C(=O)OCC)C(F)(F)F (stereo not given)	> 100 µM	> 100	–	> 100 µM	> 100	> 100	> 100 µM	> 100	> 100 µM	–	> 100 µM	–	> 100 µM	> 100 µM	> 100 µM	–	> 100 µM	> 100 µM	> 100 µM	–
O=C(Cc1ccccc1)NN1C(=O)C(Cl)C1c1ccc([N+](=O)[O-])cc1 (stereo not given)	> 100 µM	> 100	–	> 100 µM	> 100	> 100	> 100 µM	–	> 100 µM	76.3	> 100 µM	> 100	> 100 µM	> 100 µM	> 100 µM	–	–	–	> 100 µM	–
O=C(c1ccco1)n1c2ccc(Br)cc2c2nc3ccccc3nc21	51 µM	> 100	> 100	> 100 µM	87	> 100	> 100 µM	–	> 100 µM	41.5	> 100 µM	> 100	> 100 µM	> 100 µM	> 100 µM	–	> 100 µM	> 100 µM	> 100 µM	–
COC(=O)[C@@H](O)[C@]1(C(=O)OC)C2O[C@@H](OC)[C@@H]1CCCCCC[C@H]2O	> 100 µM	> 100	–	> 100 µM	> 100	> 100	> 100 µM	> 100	> 100 µM	> 100	> 100 µM	> 100	> 100 µM	> 100 µM	> 100 µM	–	> 100 µM	–	> 100 µM	–
CC(O)(/C=C/c1ccccc1)P(=O)(O)c1ccccc1 (stereo not given)	> 100 µM	> 100	> 100	> 100 µM	> 100	> 100	> 100 µM	–	> 100 µM	> 100	> 100 µM	> 100	> 100 µM	> 100 µM	> 100 µM	> 100 µM	–	> 100 µM	> 100 µM	–
COC(=O)C1=C(C(=O)OC)C2C(C)=CC(C)=CN2C(C#N)=C(SC)S1 (stereo not given)	73.2 µM	41.5	–	94.5 µM	> 100	44.6	35.4 µM	–	36.4 µM	46.7	72.7 µM	–	84.7 µM	42.7 µM	64.3 µM	–	56.5 µM	–	48.3 µM	–
CC1(C)C2CCC(N)(C2)C1N (stereo not given)	> 100 µM	> 100	> 100	> 100 µM	> 100	–	> 100 µM	–	> 100 µM	–	> 100 µM	> 100	> 100 µM	> 100 µM	> 100 µM	> 100 µM	> 100 µM	> 100 µM	–	–
CCn1c2ccccc2c2ccc3c(c21)C(=O)c1ccccc1C3=O	> 100 µM	–	–	> 100 µM	> 100	> 100	–	–	> 100 µM	> 100	–	> 100	–	> 100 µM	> 100 µM	> 100 µM	> 100 µM	> 100 µM	> 100 µM	–
COc1ccc(Cc2c(N)[nH]c(=O)n(C)c2=O)cc1	> 100 µM	> 100	–	> 100 µM	> 100	> 100	> 100 µM	> 100	> 100 µM	> 100	> 100 µM	> 100	> 100 µM	> 100 µM	> 100 µM	> 100 µM	–	> 100 µM	> 100 µM	–
COc1ccc(C(=O)/C=C/c2ccc(OCCSCCCCCCCCCCSCCOc3ccc(/C=C/C(=O)c4ccc(OC)cc4)cc3)cc2)cc1	> 100 µM	> 100	> 100	> 100 µM	> 100	> 100	–	> 100	–	–	–	> 100	–	> 100 µM	> 100 µM	–	> 100 µM	–	–	–
COP(=O)(OC)C(=NCc1ccccc1)NNc1ccc([N+](=O)[O-])cc1	> 100 µM	> 100	–	> 100 µM	72.1	> 100	–	–	61.4 µM	38.6	> 100 µM	90.7	> 100 µM	> 100 µM	51.1 µM	–	55.1 µM	54.4 µM	> 100 µM	–
COc1c(OC)c(N)c2cc(C)c(=O)c(C)cc2c1N	> 100 µM	> 100	–	> 100 µM	> 100	> 100	> 100 µM	–	> 100 µM	> 100	> 100 µM	> 100	> 100 µM	35 µM	> 100 µM	> 100 µM	> 100 µM	> 100 µM	> 100 µM	–
O=C(O)C12C3C4C1C1C2C3C1(Br)C41OCCO1 (stereo not given)	> 100 µM	–	–	> 100 µM	> 100	> 100	> 100 µM	–	> 100 µM	> 100	> 100 µM	–	> 100 µM	> 100 µM	> 100 µM	> 100 µM	> 100 µM	> 100 µM	> 100 µM	–
COc1cc(C2c3cc4c(cc3[C@@H](NCCN3CCCCC3)C3COC(=O)[C@H]23)OCO4)cc(OC)c1O (stereo not given in full)	1.01 µM and 0.808 µM	–	–	1.97 µM and 2.37 µM	0.283	3.56	1.72 µM and 1.61 µM	–	1.39 µM and 1.48 µM	–	3.52 µM and 3.72 µM	> 100	5.06 µM and 5.73 µM	11.4 µM and 10.2 µM	41.4 µM and 85 µM	0.904 µM and 1.47 µM	0.36 µM and 0.465 µM	0.84 µM and 1.64 µM	2.59 µM and 3.44 µM	0.427 µM and 1.09 µM
Cc1cc(C)nc(NC(=S)Nc2ccccc2Cl)c1	> 100 µM	> 100	> 100	–	> 100	> 100	> 100 µM	–	–	> 100	> 100 µM	> 100	> 100 µM	> 100 µM	> 100 µM	> 100 µM	> 100 µM	–	> 100 µM	–
